What was measured:
[1] = Plasma kinetics of doxorubicin after TACE, VX2 rabbits; format: in vivo, New Zealand rabbits; details: intra-arterial injection 300 μl, mean (±SD)
Method: The tumor induction method described by Hong et al. (Clin Cancer Res 2006; 12 (8): 2563-2567) was used on New Zealand rabbits (NZ; supplier Charles River, France), anesthetized beforehand.
Fragments of VX2 tumor tissues are implanted (a fragment of 25 mg/per liver of NZ rabbit) under the hepatic capsule of the left lateral lobe of the rabbits. These rabbits with a tumor in the left hepatic lobe will subsequently be referred to as “VX2 rabbits”.
19 days after having carried out the tumor induction method, the TACE is carried out. Thus, the products (volume: 300 μl) are injected into the pre-anesthetized animals, using a catheter guided by fluoroscopy (X-ray imaging) via the femoral artery and brought up to the artery feeding the hepatic tumor (injection only where selectivity has been achieved). The TACE is carried out in a dedicated room and under conditions close to clinical practice (interventional radiology).
Blood samples of 300 μl at times 0, 5, 15, 30 or 45 minutes after intra-arterial injection were taken after catheterization of the ear vein. 200 μl of plasma after centrifugation were then recovered and heparinized for assaying the anti-cancer agent. A study of the plasma kinetics of the anti-cancer agent was thus carried out.
The plasma doxorubicin assay was carried out in the heparinized plasma of VX2 rabbits under the same conditions as those described above. […]

[2] = Plasma kinetics of the anti-cancer agent after intra-arterial (TACE) injection, rat with N1-S1 tumor; format: in vivo, female Sprague-Dawley rats; details: female, Sprague-Dawley, rat N1-S1 model
Method: The tumor induction method described in Garin et al. (Lab Anim. 2005 July; 39(3): 314-20) was used on female Sprague-Dawley rats (supplier Dépré or Janvier, France), anesthetized beforehand.
6×10^6 N1-S1 rat hepatocellular carcinoma tumor cells (deposited at ATCC under the reference CRLL-1604™, also called Novikoff cells) suspended in 100 μl of IMDM medium (Iscove's Modified Dulbecco's Medium) were administered under the hepatic capsule of the left lateral lobe of the female rats, by slow injection over the course of approximately 50 seconds. […]
The plasma doxorubicin assay was carried out in the heparinized rat plasma by high performance liquid chromatography (or HPLC), the chromatograph being equipped with a fluorescence detector. […] 10 μl of the extract were analyzed by reverse-phase HPLC on a Zorbax 300SB-C18 4.6×150 mm, 3.5 μm column (with a Zorbax 300SB-C18 4.6×12.5 mm, 5 μm precolumn) and fluorimetric detection (excitation wavelength 480 nm, emission wavelength 560 nm).
The analysis was carried out over the course of 30 minutes with a 5 mM ammonium acetate, pH 3.5/acetonitrile gradient. […] When the area of the HPLC peak was greater than the upper limit of quantification, 5 μl were injected instead of 10 μl in order to obtain an area of doxorubicin included in the range. […]

[3] = Visual stability (phase separation) of the emulsion; format: physicochemical; details: comparative emulsions not in accordance with the invention
Method: The emulsion according to the invention is advantageously stable. The term “stable emulsion” is intended to mean an emulsion having, under conventional temperature (20° C.) and atmospheric pressure (1 bar) conditions and within 24 hours following its preparation, a visual phase separation of less than 5% by volume relative to the total composition in emulsion form. […] Visual phase separation manifests itself when a solution no longer appears uniform to the eye, i.e. when the appearance of at least two phases is observed.

Compound | concentration at 5 min ([1]; New Zealand, rabbit, plasma, read-out: Plasma concentration of the anti-cancer agent 5 minutes after injection) | Plasma concentration of the anti-cancer agent 5 minutes after injection ([1]; listed as Control doxorubicin alone given IA) | concentration at 45 min ([2]; 45 min after intra-arterial injection, read-out: Plasma doxorubicin concentration at 45 min) | concentration at 5 min ([2]; intra-arterial injection 100 μl, 0.5 mg anti-cancer agent, average) | Observations: phase separation / stability [3]
COc1cccc2c1C(=O)c1c(O)c3c(c(O)c1C2=O)C[C@@](O)(C(=O)CO)C[C@@H]3O[C@H]1C[C@H](N)[C@H](O)[C@H](C)O1 [Control doxorubicin alone, doxorubicin] | 563 ± 282 ng/mL | 563 ± 282 ng/mL | 112 ng/mL | 2450 ng/mL | –
Span® 20 | – | – | – | – | underwent phase separation immediately after they were prepared
Span® 83 | – | – | – | – | underwent phase separation immediately after they were prepared
Span® 85 | – | – | – | – | underwent phase separation immediately after they were prepared
